Reference: ChEMBL document CHEMBL1671713, “Synergy of caspofungin with human polymorphonuclear granulocytes for killing Candida albicans” (2010)

Experiments:
Format in all cases: functional
[1] = test system: Candida albicans; experiment: Potentiation of human polymorphonuclear granulocytes-induced intracellular killing of compound pretreated Candida albicans for 1hr at 3.2 ug/ml after 90 mins (Rvb =48%)
[2] = test system: Candida albicans; experiment: Potentiation of compound pretreated human polymorphonuclear granulocytes-induced intracellular killing of Candida albicans at 8 ug/ml after 30 mins (Rvb =46%)
[3] = test system: Candida albicans; experiment: Potentiation of human polymorphonuclear granulocytes-induced intracellular killing of Candida albicans at 2 ug/ml after 60 mins (Rvb =47%)
[4] = test system: Candida albicans; experiment: Potentiation of human polymorphonuclear granulocytes-induced intracellular killing of Candida albicans at 3.2 ug/ml after 90 mins (Rvb =48%)
[5] = test system: Candida albicans; experiment: Potentiation of compound pretreated human polymorphonuclear granulocytes-induced intracellular killing of Candida albicans at 3.2 ug/ml after 60 mins (Rvb =47%)
[6] = test system: Candida albicans; experiment: Potentiation of compound pretreated human polymorphonuclear granulocytes-induced intracellular killing of Candida albicans at 8 ug/ml after 90 mins (Rvb =48%)
[7] = test system: Candida albicans; experiment: Potentiation of human polymorphonuclear granulocytes-induced intracellular killing of Candida albicans at 2 ug/ml after 90 mins (Rvb =48%)
[8] = test system: Candida albicans; experiment: Potentiation of human polymorphonuclear granulocytes-induced intracellular killing of Candida albicans at 3.2 ug/ml after 30 mins (Rvb =46%)
[9] = test system: Candida albicans; experiment: Potentiation of human polymorphonuclear granulocytes-induced intracellular killing of compound pretreated Candida albicans for 1hr at 8 ug/ml after 30 mins (Rvb =46%)
[10] = test system: Candida albicans; experiment: Potentiation of compound pretreated human polymorphonuclear granulocytes-induced intracellular killing of Candida albicans at 3.2 ug/ml after 90 mins (Rvb =48%)
[11] = test system: Candida albicans; experiment: Potentiation of compound pretreated human polymorphonuclear granulocytes-induced intracellular killing of Candida albicans at 8 ug/ml after 60 mins (Rvb =47%)
[12] = test system: Candida albicans; experiment: Potentiation of human polymorphonuclear granulocytes-induced intracellular killing of compound pretreated Candida albicans for 1hr at 8 ug/ml after 90 mins (Rvb =48%)
[13] = test system: Candida albicans; experiment: Potentiation of human polymorphonuclear granulocytes-induced intracellular killing of Candida albicans at 8 ug/ml after 90 mins (Rvb =48%)
[14] = test system: Candida albicans; experiment: Potentiation of human polymorphonuclear granulocytes-induced intracellular killing of compound pretreated Candida albicans for 1hr at 3.2 ug/ml after 30 mins (Rvb =46%)
[15] = test system: Candida albicans; experiment: Potentiation of compound pretreated human polymorphonuclear granulocytes-induced intracellular killing of Candida albicans at 2 ug/ml after 90 mins (Rvb =48%)
[16] = test system: Candida albicans; experiment: Potentiation of human polymorphonuclear granulocytes-induced intracellular killing of compound pretreated Candida albicans for 1hr at 2 ug/ml after 30 mins (Rvb =46%)
[17] = test system: Candida albicans; experiment: Potentiation of human polymorphonuclear granulocytes-induced intracellular killing of Candida albicans at 8 ug/ml after 60 mins (Rvb =47%)
[18] = test system: Candida albicans; experiment: Potentiation of human polymorphonuclear granulocytes-induced intracellular killing of Candida albicans at 2 ug/ml after 30 mins (Rvb =46%)
[19] = test system: Candida albicans; experiment: Potentiation of human polymorphonuclear granulocytes-induced intracellular killing of compound pretreated Candida albicans for 1hr at 3.2 ug/ml after 60 mins (Rvb =47%)
[20] = test system: Candida albicans; experiment: Potentiation of human polymorphonuclear granulocytes-induced intracellular killing of compound pretreated Candida albicans for 1hr at 8 ug/ml after 60 mins (Rvb =47%)
[21] = test system: Candida albicans; experiment: Potentiation of compound pretreated human polymorphonuclear granulocytes-induced intracellular killing of Candida albicans at 2 ug/ml after 30 mins (Rvb =46%)
[22] = test system: Candida albicans; experiment: Potentiation of human polymorphonuclear granulocytes-induced intracellular killing of Candida albicans at 8 ug/ml after 30 mins (Rvb =46%)
[23] = test system: Candida albicans; experiment: Potentiation of human polymorphonuclear granulocytes-induced intracellular killing of compound pretreated Candida albicans for 1hr at 2 ug/ml after 90 mins (Rvb =48%)
[24] = test system: Candida albicans; experiment: Potentiation of compound pretreated human polymorphonuclear granulocytes-induced intracellular killing of Candida albicans at 2 ug/ml after 60 mins (Rvb =47%)
[25] = test system: Candida albicans; experiment: Potentiation of human polymorphonuclear granulocytes-induced intracellular killing of compound pretreated Candida albicans for 1hr at 2 ug/ml after 60 mins (Rvb =47%)
[26] = test system: Candida albicans; experiment: Potentiation of human polymorphonuclear granulocytes-induced intracellular killing of Candida albicans at 3.2 ug/ml after 60 mins (Rvb =47%)
[27] = test system: Candida albicans; experiment: Potentiation of compound pretreated human polymorphonuclear granulocytes-induced intracellular killing of Candida albicans at 3.2 ug/ml after 30 mins (Rvb =46%)

CC[C@H](C)C[C@H](C)CCCCCCCCC(=O)N[C@H]1C[C@@H](O)[C@@H](NCCN)NC(=O)[C@@H]2[C@@H](O)CCN2C(=O)[C@H]([C@H](O)CCN)NC(=O)[C@H]([C@H](O)[C@@H](O)c2ccc(O)cc2)NC(=O)[C@@H]2C[C@@H](O)CN2C(=O)[C@H]([C@@H](C)O)NC1=O [CASPOFUNGIN]
Activity [1]: 78%
Activity [2]: 79%
Activity [3]: 72%
Activity [4]: 86%
Activity [5]: 84%
Activity [6]: 94%
Activity [7]: 75%
Activity [8]: 72%
Activity [9]: 63%
Activity [10]: 91%
Activity [11]: 82%
Activity [12]: 72%
Activity [13]: 83%
Activity [14]: 63%
Activity [15]: 82%
Activity [16]: 69%
Activity [17]: 83%
Activity [18]: 71%
Activity [19]: 74%
Activity [20]: 66%
Activity [21]: 72%
Activity [22]: 74%
Activity [23]: 82%
Activity [24]: 76%
Activity [25]: 69%
Activity [26]: 75%
Activity [27]: 69%
